The text below walks through data of patent US20170118998A1, “PESTICIDAL COMPOSITIONS AND METHODS FOR USING SAME” (priority 1998, published 2017).

A value given as a limit tells only on which side of the number the result lay.

Common to all, as to format: in vivo
The test system of assay [1] is American cockroaches. Kind of assay: Direct spray toxicity of rosemary oil, wintergreen oil and their blend (Example 1). The conditions noted are these: sprayed with approximately 3.7 grams; one value per insect. How it is done:
Studies were conducted to evaluate the individual toxicity, in terms of speed of action and mortality, of rosemary oil and wintergreen oil against American cockroaches, and then a blend of these two oils to determine if similar toxic effects could be obtained using a proprietary blend that was less expensive to produce and easier to employ in different end-use formulations. Methyl salicylate was used as wintergreen oil. American cockroaches were confined under a screened cap and then sprayed with approximately 3.7 grams of each test chemical using a trigger sprayer. Immediately after spraying, the insects were released into a large plastic container and observed for signs of toxicity. Three American cockroaches were used in each experiment. The times for immobilization (IM), knockdown (KD), and mortality were recorded for each test insect. An untreated control was provided.

In assay [2] the target is American cockroaches. Description: Test chemical applied directly to thorax of insect using Pasteur Pipette (Table 12). The conditions noted are these: 1 drop applied directly to thorax; one value per insect.
The subject of assay [3] is Melon Aphids Aphis gossypii. Description: Melon Aphids on squash (Table 11). The conditions noted are these: 1 qt/acre, applied three times at one week interval. The protocol:
A formulation (DR-A-034) consisting of 5% w/w rosemary oil, 22.5% w/w wintergreen oil, 22.5% w/w mineral oil, 0.5% w/w lecithin (emulsifier), and 49.5% w/w water was prepared and labeled Hexacide™. Hexacide™ was applied in dilute form at different rates per acre to the pests itemized below in various greenhouse and field studies. In all of these studies, positive controls consisting of conventional pesticides were utilized for comparative efficacy.
Randomized complete block design was used. Five replicates per treatment were performed. 100 gallons spray volume per acre (GPA). Latron CS-7 at 4 ml/gallon was added to all treatments. All foliar applied pesticidal compositions applied, except Admire and Platinum (soil insecticides). HEXACIDE™ Azadiractin and Pyganic applied three times at one week interval. Other products applied once.

`COC(=O)c1ccccc1O` [100% Methyl Salicylate, Methyl salicylate]: in the assay with American cockroaches [1], the “IM (time for immobilization)” value was found to be 45 s and the “Mortality (time)” value is above 2 min. At American cockroaches [2], the “KD (knockdown time)” value is on record as “no KD” and the “Mortality (time)” value was above 5 m.

With `C/C=C(\C)C(=O)O[C@H]1C[C@@H](OC(C)=O)[C@@]2(C(=O)OC)CO[C@H]3[C@@H](O)[C@@](C)([C@]45O[C@@]4(C)[C@H]4C[C@@H]5O[C@@H]5OC=C[C@@]54O)[C@H]4[C@]1(CO[C@]4(O)C(=O)OC)[C@@H]32` [Azadiractin], the “Mean % Aphids per Leaf” value is 5.4 c % in assay [3] (6 DAT), 15.1 c % in assay [3] (12 DAT) and 3.9 b % in assay [3] (Pretreatment).
